Experimental data reported in US10285989B2, “Pyrimidinone amide compounds as PDE2 inhibitors” (Merck Sharp & Dohme Corp., priority 2015, dated 2019).

What follows are compounds tested against human PDE2A1 (Homo sapiens (Human), UniProt O00408) (assay: PDE2 IMAP FP inhibition assay, human PDE2A1 (selectivity panel format)). Conditions: @ 3 μM; Lab B; read-out: Human PDE2 % inhibition at a given concentration - Lab B.
Format: biochemical
Method: Selectivity for PDE2, as compared to other PDE families, was assessed using the IMAP® technology. Human PDE10A2 enzyme was prepared from cytosolic fractions of transiently transfected HEK cells.
A Labcyte POD 810 (Labcyte, Sunnyvale, Calif.) was used to dispense 200 nL from each well of the titration plate to make eleven copies of the assay plate for each titration, one copy for each PDE enzyme. A solution of each enzyme (dilution from aliquots, sufficient to produce 20% substrate conversion) and a separate solution of FAM-labeled cAMP or FAM-labeled cGMP from Molecular Devices (Sunnyvale, Calif., product # R7506 or cGMP#R7508), at a final concentration of 50 nM were made in the assay buffer (10 mM Tris HCl, pH 7.2, 10 mM MgCl2, 0.05% NaN3 0.01% Tween-20, and 1 mM DTT). Note that the substrate for PDE2 is 50 nM FAM cAMP containing 1000 nM of cGMP. The enzyme and the substrate were then added to the assay plates in two consecutive additions of 10 μL and then shaken to mix. The reaction was allowed to proceed at room temperature for 60 minutes. A binding solution was then made from the kit components, comprised of 80% Solution A, 20% Solution B and binding reagent at a volume of 1/600 the total binding solution. The enzymatic reaction was stopped by addition of 60 μL of the binding solution to each well of the assay plate. The plates were sealed and shaken for 10 seconds. The plates were incubated at room temperature for one hour, then the parallel and perpendicular fluorescence was measured using a Tecan Genios Pro plate reader (Tecan, Switzerland). […] The intrinsic PDE2 inhibitory activity of a compound which may be used in accordance with the present invention may be determined by these assays. […]

Sequence of human PDE2A1 (O00408 other isoform, or with tags, fused parts or gaps): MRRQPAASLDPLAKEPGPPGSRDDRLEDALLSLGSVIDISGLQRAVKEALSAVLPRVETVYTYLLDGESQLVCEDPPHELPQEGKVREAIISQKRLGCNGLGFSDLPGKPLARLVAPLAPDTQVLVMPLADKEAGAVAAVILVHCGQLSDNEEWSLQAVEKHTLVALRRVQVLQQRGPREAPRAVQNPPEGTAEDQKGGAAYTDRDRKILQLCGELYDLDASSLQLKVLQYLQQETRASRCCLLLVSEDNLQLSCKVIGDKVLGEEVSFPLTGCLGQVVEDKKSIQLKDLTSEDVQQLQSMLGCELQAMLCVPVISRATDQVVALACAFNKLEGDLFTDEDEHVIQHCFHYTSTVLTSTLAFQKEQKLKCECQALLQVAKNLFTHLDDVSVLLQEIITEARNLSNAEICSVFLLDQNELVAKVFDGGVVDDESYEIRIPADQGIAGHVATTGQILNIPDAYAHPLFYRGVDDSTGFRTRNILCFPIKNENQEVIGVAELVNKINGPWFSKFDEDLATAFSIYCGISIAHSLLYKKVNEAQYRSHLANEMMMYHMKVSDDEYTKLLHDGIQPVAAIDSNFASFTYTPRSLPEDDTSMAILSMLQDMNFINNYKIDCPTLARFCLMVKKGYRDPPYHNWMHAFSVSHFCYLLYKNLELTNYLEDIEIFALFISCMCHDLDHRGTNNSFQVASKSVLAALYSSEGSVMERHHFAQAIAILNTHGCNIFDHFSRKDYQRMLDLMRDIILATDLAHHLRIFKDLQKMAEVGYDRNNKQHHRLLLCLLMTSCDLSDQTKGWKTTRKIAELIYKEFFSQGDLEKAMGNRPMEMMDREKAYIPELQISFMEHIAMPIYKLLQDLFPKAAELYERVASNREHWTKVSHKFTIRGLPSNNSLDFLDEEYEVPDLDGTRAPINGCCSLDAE

Row | SMILES | inhibition at 3 µM
1 | CN(C)c1nc(C(=O)NC(c2ccc(SC(F)(F)F)c(F)c2)C2(C)CC2)cc(=O)[nH]1 (single isomer, unassigned) [Example 119, (S)- or (R)-2-(dimethylamino)-N-[{3-fluoro-4-[(trifluoromethyl)sulfanyl]phenyl}(1-methylcyclopropyl)methyl]-6-oxo-1,6-dihydropyrimidine-4-carboxamide] | 49%
2 | CC(NC(=O)c1cc(=O)[nH]c(N(C)C)n1)c1ccc(C(C)(C)C(F)(F)F)cc1 (single isomer, unassigned) [Example 121, (S)- or (R)-2-(dimethylamino)-6-oxo-N-{1-[4-(2,2,2-trifluoro-1,1-dimethylethyl)phenyl]ethyl}-1,6-dihydropyrimidine-4-carboxamide] | 15%
3 | CC(NC(=O)c1cc(=O)[nH]c(N(C)C)n1)c1ccc(C2(C(F)(F)F)CC2)cc1 (single isomer, unassigned) [Example 125, (S)- or (R)-2-(dimethylamino)-6-oxo-N-[1-{4-[1-(trifluoromethyl)cyclopropyl]phenyl}ethyl]-1,6-dihydropyrimidine-4-carboxamide] | 38%

Same assay, conditions: Lab B; read-out: Human PDE2 Ki (nM) - Lab B

Row | SMILES | Ki
4 | CC(NC(=O)c1cc(=O)[nH]c(N(C)C)n1)c1ccc(C(C)(C)C(F)(F)F)cc1 (single isomer, unassigned) [Example 122, (R)- or (S)-2-(dimethylamino)-6-oxo-N-{1-[4-(2,2,2-trifluoro-1,1-dimethylethyl)phenyl]ethyl}-1,6-dihydropyrimidine-4-carboxamide] | 34 nM
5 | CN(C)c1nc(C(=O)NC(c2ccc(C3(C)CC3)c(F)c2)C(C)(C)C)cc(=O)[nH]1 (single isomer, unassigned) [Example 123, (S)- or (R)-2-(dimethylamino)-N-{1-[3-fluoro-4-(1-methylcyclopropyl)phenyl]-2,2-dimethylpropyl}-6-oxo-1,6-dihydropyrimidine-4-carboxamide] | 167 nM
6 | CC(NC(=O)c1cc(=O)[nH]c(N(C)C)n1)c1ccc(C2(C(F)(F)F)CC2)cc1 (single isomer, unassigned) [Example 126, (R)- or (S)-2-(dimethylamino)-6-oxo-N-[1-{4-[1-(trifluoromethyl)cyclopropyl]phenyl}ethyl]-1,6-dihydropyrimidine-4-carboxamide] | 16 nM
7 | CN(C)c1nc(C(=O)NC(c2ccc(S(F)(F)(F)(F)F)cc2F)C(C)(C)C)cc(=O)[nH]1 (single isomer, unassigned) [Example 127, (S)- or (R)-2-(dimethylamino)-N-{1-[2-fluoro-4-(pentafluoro-λ^6-sulfanyl)phenyl]-2,2-dimethylpropyl}-6-oxo-1,6-dihydropyrimidine-4-carboxamide] | 527 nM
8 | CCC(C)(NC(=O)c1cc(=O)[nH]c(N(C)C)n1)c1ccc(C(F)(F)F)cc1F (single isomer, unassigned) [Example 129, (S)- or (R)-2-(dimethylamino)-N-{1-[2-fluoro-4-(trifluoromethyl)phenyl]-1-methylpropyl}-6-oxo-1,6-dihydro-pyrimidine-4-carboxamide] | 5.5 nM
9 | COCC1CCN(c2nc(C(=O)N[C@@H](c3ccc(C(F)(F)F)cc3)C(C)(C)C)cc(=O)[nH]2)C1 (single isomer, unassigned) [Example 177, (S)- or (R)-N-{(1R)-2,2-dimethyl-1-[4-(trifluoromethyl)phenyl]propyl}-2-[3-(methoxymethyl)pyrrolidin-1-yl]-6-oxo-1,6-dihydropyrimidine-4-carboxamide] | 0.46 nM
10 | C[C@H]1C[C@]1(NC(=O)c1cc(=O)[nH]c(N(C)C)n1)c1ccc(C(F)(F)F)cc1 (single isomer, unassigned; enantiomer a) [Example 174, 2-(dimethylamino)-N-{2-methyl-1-[4-(trifluoromethyl)phenyl]cyclopropyl}-6-oxo-1,6-dihydropyrimidine-4-carboxamide (cis, enantiomer A)] | 2.7 nM
